Experimental data: PubChem BioAssay AID1259407 (Chemical Carcinogenesis Research Information System (CCRIS), 2018)
Calls of active or inactive are those of the source. How the calls were made is not given here.

Tested on: CCRIS mutagenicity, Ames/micronucleus/aberration tests
Assay: CCRIS mutagenicity studies

Measured: mutagenic call

COS(C)(=O)=O
active: End Point: IN VITRO MICRONUCLEUS, Test System: CHINESE HAMSTER OVARY CELLS, Metabolic Activation: NONE active; positive | End Point: IN VITRO MICRONUCLEUS, Test System: CHL/IU CELLS, Metabolic Activation: NONE active; positive | End Point: IN VITRO MICRONUCLEUS, Test System: CHO CELLS, Metabolic Activation: RAT, LIVER, S-9, AROCLOR 1254 active; positive | End Point: IN VITRO MICRONUCLEUS, Test System: HUMAN FIBROBLASTS VH25 CELLS, Metabolic Activation: NONE active; positive | End Point: IN VITRO MICRONUCLEUS, Test System: MOUSE LYMPHOMA L5178Y CELLS, Metabolic Activation: NONE active; positive | End Point: IN VIVO MICRONUCLEUS, Test System: BONE MARROW POLYCHROMATIC ERYTHROCYTES, Species: MOUSE, Strain/Sex: SWISS/FEMALE, Route: IP active; positive | End Point: IN VIVO MICRONUCLEUS, Test System: PERIPHERAL BLOOD RETICULOCYTES, Species: RAT, Strain/Sex: FISHER 344 OR SD/MALE, Route: ORAL OR IP active; positive | End Point: In vitro micronucleus, Test System: Chinese hamster ovary (CHO) cells, Metabolic Activation: None active; positive (lycopene (10, 25 and 50 um) significantly reduced the number of micron | End Point: In vitro micronucleus, Test System: Chinese hamster ovary (CHO-WBL) cells, Metabolic Activation: None active; positive (p<0.01) | Test System: AMES SALMONELLA TYPHIMURIUM, Strain/Indicator: TA97, Metabolic Activation: NONE, Method: STANDARD PLATE active; positive | Test System: AMES SALMONELLA TYPHIMURIUM, Strain/Indicator: TA100, Metabolic Activation: NONE, Method: STANDARD PLATE active; positive | Test System: AMES SALMONELLA TYPHIMURIUM, Strain/Indicator: TA1535, Metabolic Activation: NONE, Method: STANDARD PLATE active; positive | Test System: AMES SALMONELLA TYPHIMURIUM, Strain/Indicator: YG7104, Metabolic Activation: NONE, Method: PREINCUBATION active; positive | Test System: AMES SALMONELLA TYPHIMURIUM, Strain/Indicator: YG7108, Metabolic Activation: NONE, Method: PREINCUBATION active; positive | Test System: AMES SALMONELLA TYPHIMURIUM, Strain/Indicator: YG7112, Metabolic Activation: NONE, Method: PREINCUBATION active; positive | Test System: AMES SALMONELLA TYPHIMURIUM, Strain/Indicator: YG7113, Metabolic Activation: NONE, Method: PREINCUBATION active; positive | Test System: AMES SALMONELLA TYPHIMURIUM, Strain/Indicator: YG7119, Metabolic Activation: NONE, Method: PREINCUBATION active; positive | Test System: CHINESE HAMSTER OVARY, Strain/Indicator: CHO-K1-BH4 (HGPRT)/6-THIOGUANINE, Metabolic Activation: NONE, Method: SUSPENSION/PLATE active; positive | Test System: CHINESE HAMSTER OVARY, Strain/Indicator: CHO-K1-BH4 (HGPRT), Metabolic Activation: NONE, Method: MONOLAYER active; positive | Test System: CHINESE HAMSTER OVARY, Strain/Indicator: CHO-K1-BH4 (HGPRT), Metabolic Activation: NONE, Method: SUSPENSION/PLATE active; positive | Test System: CHINESE HAMSTER V-79, Strain/Indicator: V-79/6-THIOGUANINE, Metabolic Activation: NONE, Method: FLASK ASSAY active; positive | Test System: CHINESE HAMSTER V-79, Strain/Indicator: V-79/6-THIOGUANINE, Metabolic Activation: NONE, Method: STANDARD PLATE active; positive | Test System: CHINESE HAMSTER V-79, Strain/Indicator: V-79/6-THIOGUANINE, Metabolic Activation: NONE, Method: SUSPENSION/PLATE active; positive | Test System: CHINESE HAMSTER V-79, Strain/Indicator: V-79/8-AZAGUANINE, Metabolic Activation: NONE, Method: STANDARD PLATE active; positive | Test System: CHINESE HAMSTER V-79, Strain/Indicator: V-79/OUABAIN, Metabolic Activation: NONE, Method: STANDARD PLATE active; positive | Test System: CHO/HGPRT, Strain/Indicator: CHO-K1-BH4, Metabolic Activation: NONE, Method: STANDARD PLATE active; positive | Test System: E. COLI, Strain/Indicator: TK701 (PKM101), Metabolic Activation: NONE, Method: STANDARD PLATE active; positive | Test System: E. COLI, Strain/Indicator: TK701, Metabolic Activation: NONE, Method: STANDARD PLATE active; positive | Test System: E. COLI, Strain/Indicator: TK702 (PKM101), Metabolic Activation: NONE, Method: STANDARD PLATE active; positive | Test System: E. COLI, Strain/Indicator: WP2, Metabolic Activation: NONE, Method: FLUCTUATION active; positive | Test System: E. COLI, Strain/Indicator: WP2, Metabolic Activation: NONE, Method: PREINCUBATION active; positive | Test System: E. COLI, Strain/Indicator: WP2, Metabolic Activation: NONE, Method: STANDARD PLATE active; positive | Test System: E. COLI, Strain/Indicator: WP2 UVRA, Metabolic Activation: HAMSTER, LIVER, S-9, AROCLOR 1254, Method: STANDARD PLATE active; positive | Test System: E. COLI, Strain/Indicator: WP2 UVRA, Metabolic Activation: HAMSTER, LIVER, S-9, Method: STANDARD PLATE active; positive | Test System: E. COLI, Strain/Indicator: WP2 UVRA, Metabolic Activation: MOUSE, LIVER, S-9, AROCLOR 1254, Method: STANDARD PLATE active; positive | Test System: E. COLI, Strain/Indicator: WP2 UVRA, Metabolic Activation: MOUSE, LIVER, S-9, Method: STANDARD PLATE active; positive | Test System: E. COLI, Strain/Indicator: WP2 UVRA, Metabolic Activation: NONE, Method: FLUCTUATION active; positive | Test System: E. COLI, Strain/Indicator: WP2 UVRA, Metabolic Activation: NONE, Method: PREINCUBATION active; positive | Test System: E. COLI, Strain/Indicator: WP2 UVRA, Metabolic Activation: RAT, LIVER, S-9, AROCLOR 1254, Method: STANDARD PLATE active; positive | Test System: E. COLI, Strain/Indicator: WP2 UVRA, Metabolic Activation: RAT, LIVER, S-9, Method: STANDARD PLATE active; positive | Test System: MOUSE LYMPHOMA, Strain/Indicator: L5178Y (TK+/TK-), Metabolic Activation: NONE, Method: SUSPENSION/PLATE active; positive | Test System: MOUSE LYMPHOMA, Strain/Indicator: L5178Y (TK+/TK-), Metabolic Activation: RAT, LIVER, S-9, AROCLOR 1254, Method: SUSPENSION/PLATE active; positive | Test System: UDS HUMAN CELLS, Strain/Indicator: THY INCORP (NON-S-PHASE), Metabolic Activation: NONE, Method: AUTORADIOGRAPHY active; positive | Test System: UDS HUMAN CELLS, Strain/Indicator: THY INCORP (NON-S-PHASE), Metabolic Activation: NONE, Method: LIQUID SCINTILLATION COUNTING active; positive | Test System: UDS HUMAN KERATINOCYTES, Strain/Indicator: THY INCORP, Metabolic Activation: NONE, Method: AUTORADIOGRAPHY active; positive | Test System: UDS HUMAN LYMPHOCYTES, Strain/Indicator: THY INCORP (NON-S-PHASE), Metabolic Activation: NONE, Method: LIQUID SCINTILLATION COUNTING active; positive | Test System: UDS MONKEY HEPATOCYTES, Strain/Indicator: THY INCORP, Metabolic Activation: AROCLOR 1254, Method: AUTORADIOGRAPHY active; positive | Test System: UDS MONKEY HEPATOCYTES, Strain/Indicator: THY INCORP, Metabolic Activation: NONE, Method: AUTORADIOGRAPHY active; positive | Test System: UDS RAT HEPATOCYTES, Strain/Indicator: BROMODEOXYURIDINE INCORP, Metabolic Activation: NONE, Method: FLOW CYTOMETRIC ANALYSIS active; positive | Test System: UDS RAT HEPATOCYTES, Strain/Indicator: THY INCORP, Metabolic Activation: NONE, Method: AUTORADIOGRAPHY active; positive | Test System: UDS RAT PACHYTENE SPERMATOCYTES, Strain/Indicator: THY INCORP, Metabolic Activation: NONE, Method: LIQUID SCINTILLATION COUNTING active; positive | Test System: UDS RODENT CELLS, Strain/Indicator: THY INCORP (NON-S-PHASE), Metabolic Activation: NONE, Method: AUTORADIOGRAPHY active; positive | Test System: UDS RODENT CELLS, Strain/Indicator: THY INCORP (NON-S-PHASE), Metabolic Activation: NONE, Method: LIQUID SCINTILLATION COUNTING active; positive | Test System: UDS RODENT HEPATOCYTES, Strain/Indicator: THY INCORP (NON-S-PHASE), Method: AUTORADIOGRAPHY active; positive | Test System: UDS RODENT HEPATOCYTES, Strain/Indicator: THY INCORP (NON-S-PHASE), Method: LIQUID SCINTILLATION COUNTING active; positive | Test System: UDS RODENT PRIMARY CELLS, Strain/Indicator: THY INCORP (NON-S-PHASE), Metabolic Activation: NONE, Method: LIQUID SCINTILLATION COUNTING active; positive | Test System: UDS, Strain/Indicator: HEPG2/THYMIDINE INCORPORATION, Metabolic Activation: NONE, Method: AUTORADIOGRAPHY active; positive
inactive: End Point: IN VIVO MICRONUCLEUS, Test System: HEPATOCYTES, Species: RAT, Strain/Sex: FISHER 344 OR SD/MALE, Route: ORAL OR IP inactive; negative | Test System: AMES SALMONELLA TYPHIMURIUM, Strain/Indicator: TA97, Metabolic Activation: RAT, LIVER, S-9, AROCLOR 1254, Method: STANDARD PLATE inactive; negative | Test System: AMES SALMONELLA TYPHIMURIUM, Strain/Indicator: TA98, Metabolic Activation: NONE, Method: STANDARD PLATE inactive; negative | Test System: AMES SALMONELLA TYPHIMURIUM, Strain/Indicator: TA98, Metabolic Activation: RAT, LIVER, S-9, AROCLOR 1254, Method: STANDARD PLATE inactive; negative | Test System: AMES SALMONELLA TYPHIMURIUM, Strain/Indicator: TA100, Metabolic Activation: RAT, LIVER, S-9, AROCLOR 1254, Method: STANDARD PLATE inactive; negative | Test System: AMES SALMONELLA TYPHIMURIUM, Strain/Indicator: YG7100, Metabolic Activation: NONE, Method: PREINCUBATION inactive; negative | Test System: CHINESE HAMSTER V-79, Strain/Indicator: V-79/OUABAIN, Metabolic Activation: NONE, Method: SUSPENSION/PLATE inactive; negative | Test System: E. COLI, Strain/Indicator: TK702, Metabolic Activation: NONE, Method: STANDARD PLATE inactive; negative
